Laboratory results as given in PubChem BioAssay AID1259407 (Chemical Carcinogenesis Research Information System (CCRIS), 2018).
Calls of active or inactive are those of the source. The rule behind the calls is not given here.

Test system: CCRIS mutagenicity, Ames/micronucleus/aberration tests
Test: CCRIS mutagenicity studies

SMILES: Cc1c2ccccc2c(C)c2c1ccc1ccccc12
- mutagenic call (End Point: IN VITRO CHROMOSOMAL ABERRATIONS, Test System: CHL/IU CELLS, Metabolic Activation: RAT, LIVER, S-9, PHENOBARBITAL AND 5,6-BENZOFLAVONE): active; positive (structural changes)
- mutagenic call (End Point: IN VITRO MICRONUCLEUS, Test System: CHL/IU CELLS, Metabolic Activation: RAT, LIVER, S-9, PHENOBARBITAL AND 5,6-BENZOFLAVONE): active; positive
- mutagenic call (End Point: IN VITRO MICRONUCLEUS, Test System: CHO CELLS, Metabolic Activation: RAT, LIVER, S-9, AROCLOR 1254): active; positive
- mutagenic call (End Point: IN VITRO MICRONUCLEUS, Test System: V79 CELLS, Metabolic Activation: RAT, LIVER, S-9, AROCLOR 1254): active; positive
- mutagenic call (End Point: IN VIVO CHROMOSOMAL ABERRATIONS, Test System: MAMMARY GLAND CELLS, USING DUAL PROBE FISH, Species: RAT, Strain/Sex: SPRAGUE-DAWLEY/FEMALE, Route: INTRAGASTRIC): active; positive (hyperdiploidy and polyploidy)
- mutagenic call (End Point: IN VIVO MICRONUCLEUS, Test System: BLOOD ERYTHROCYTES, Species: MOUSE, Strain/Sex: CD-1/MALE, Route: ORAL): active; positive
- mutagenic call (End Point: IN VIVO MICRONUCLEUS, Test System: MAMMARY GLAND CELLS, Species: RAT, Strain/Sex: SPRAGUE-DAWLEY/FEMALE, Route: INTRAGASTRIC): inactive; negative
- mutagenic call (Test System: AMES SALMONELLA TYPHIMURIUM, Strain/Indicator: TA97, Metabolic Activation: NONE, Method: STANDARD PLATE): active; positive
- mutagenic call (Test System: AMES SALMONELLA TYPHIMURIUM, Strain/Indicator: TA97, Metabolic Activation: RAT, LIVER, S-9, PCB, Method: STANDARD PLATE): active; positive
- mutagenic call (Test System: AMES SALMONELLA TYPHIMURIUM, Strain/Indicator: TA98, Metabolic Activation: NONE, Method: SPIRAL ASSAY): active; positive
- mutagenic call (Test System: AMES SALMONELLA TYPHIMURIUM, Strain/Indicator: TA98, Metabolic Activation: RAT, LIVER, S-9, AROCLOR 1254, Method: SPIRAL ASSAY): active; positive
- mutagenic call (Test System: AMES SALMONELLA TYPHIMURIUM, Strain/Indicator: TA98, Metabolic Activation: RAT, LIVER, S-9, AROCLOR 1254, Method: STANDARD PLATE): active; positive
- mutagenic call (Test System: AMES SALMONELLA TYPHIMURIUM, Strain/Indicator: TA98, Metabolic Activation: RAT, LIVER, S-9, PCB, Method: STANDARD PLATE): active; positive
- mutagenic call (Test System: AMES SALMONELLA TYPHIMURIUM, Strain/Indicator: TA98, Method: STANDARD PLATE): active; positive
- mutagenic call (Test System: AMES SALMONELLA TYPHIMURIUM, Strain/Indicator: TA100, Metabolic Activation: MOUSE, LIVER, MICROSOMES, BENZO[E]PYRENE AND TCDD, Method: STANDARD PLATE): active; positive
- mutagenic call (Test System: AMES SALMONELLA TYPHIMURIUM, Strain/Indicator: TA100, Metabolic Activation: NONE, Method: SPIRAL ASSAY): active; positive
- mutagenic call (Test System: AMES SALMONELLA TYPHIMURIUM, Strain/Indicator: TA100, Metabolic Activation: RAT, INTACT HEPATOCYTES, AROCLOR 1254, Method: PREINCUBATION): active; positive
- mutagenic call (Test System: AMES SALMONELLA TYPHIMURIUM, Strain/Indicator: TA100, Metabolic Activation: RAT, LIVER, MICROSOMES, 3-METHYLCHOLANTHRENE, Method: PREINCUBATION): active; positive
- mutagenic call (Test System: AMES SALMONELLA TYPHIMURIUM, Strain/Indicator: TA100, Metabolic Activation: RAT, LIVER, MICROSOMES, SODIUM PHENOBARBITAL, Method: PREINCUBATION): active; positive
- mutagenic call (Test System: AMES SALMONELLA TYPHIMURIUM, Strain/Indicator: TA100, Metabolic Activation: RAT, LIVER, MICROSOMES, SUDAN III, Method: PREINCUBATION): active; positive
- mutagenic call (Test System: AMES SALMONELLA TYPHIMURIUM, Strain/Indicator: TA100, Metabolic Activation: RAT, LIVER, MICROSOMES, Method: PREINCUBATION): active; positive
- mutagenic call (Test System: AMES SALMONELLA TYPHIMURIUM, Strain/Indicator: TA100, Metabolic Activation: RAT, LIVER, S-9, AROCLOR 1254, Method: SPIRAL ASSAY): active; positive
- mutagenic call (Test System: AMES SALMONELLA TYPHIMURIUM, Strain/Indicator: TA100, Metabolic Activation: RAT, LIVER, S-9, AROCLOR 1254, Method: STANDARD PLATE): active; positive
- mutagenic call (Test System: AMES SALMONELLA TYPHIMURIUM, Strain/Indicator: TA100, Metabolic Activation: RAT, LIVER, S-9, EUGENOL, Method: PREINCUBATION): active; positive
- mutagenic call (Test System: AMES SALMONELLA TYPHIMURIUM, Strain/Indicator: TA100, Metabolic Activation: RAT, LIVER, S-9, KC500 OR PHENOBARBITAL, Method: LIQUID SUSPENSION): active; positive
- mutagenic call (Test System: AMES SALMONELLA TYPHIMURIUM, Strain/Indicator: TA100, Metabolic Activation: RAT, LIVER, S-9, PCB, Method: STANDARD PLATE): active; positive
- mutagenic call (Test System: AMES SALMONELLA TYPHIMURIUM, Strain/Indicator: TA100, Metabolic Activation: RAT, LIVER, S-9, PHENOBARBITAL, Method: STANDARD PLATE): active; positive
- mutagenic call (Test System: AMES SALMONELLA TYPHIMURIUM, Strain/Indicator: TA100, Metabolic Activation: RAT, LIVER, S-9, Method: PREINCUBATION): active; positive
- mutagenic call (Test System: AMES SALMONELLA TYPHIMURIUM, Strain/Indicator: TA100, Metabolic Activation: RAT, NADPH-FORTIFIED HOMOGENIZED HEPATOCYTES, AROCLOR 1254, Method: PREINCUBATION): active; positive
- mutagenic call (Test System: AMES SALMONELLA TYPHIMURIUM, Strain/Indicator: TA100, Metabolic Activation: RAT, SONICATED HEPATOCYTES, AROCLOR 1254, Method: PREINCUBATION): active; positive
- mutagenic call (Test System: AMES SALMONELLA TYPHIMURIUM, Strain/Indicator: TA100, Method: STANDARD PLATE): active; positive
- mutagenic call (Test System: AMES SALMONELLA TYPHIMURIUM, Strain/Indicator: TA1535, Metabolic Activation: NONE, Method: SPIRAL ASSAY): inactive; negative
- mutagenic call (Test System: AMES SALMONELLA TYPHIMURIUM, Strain/Indicator: TA1535, Metabolic Activation: NONE, Method: STANDARD PLATE): inactive; negative
